Measured values as given in patent US20110053982A1, “ETHER BENZYLIDENE PIPERIDINE 5-MEMBERED ARYL CARBOXAMIDE COMPOUNDS USEFUL AS FAAH INHIBITORS” (PFIZER INC., priority 2008, published 2011).

How the values were obtained:
rFAAH = molecular target: T1, rFAAH (Rattus norvegicus, UniProt P97612); assay: FAAH assay, rFAAH kobs/I; type: biochemical; settings: additional data table, unit not given
T1 sequence (P97612 1-579): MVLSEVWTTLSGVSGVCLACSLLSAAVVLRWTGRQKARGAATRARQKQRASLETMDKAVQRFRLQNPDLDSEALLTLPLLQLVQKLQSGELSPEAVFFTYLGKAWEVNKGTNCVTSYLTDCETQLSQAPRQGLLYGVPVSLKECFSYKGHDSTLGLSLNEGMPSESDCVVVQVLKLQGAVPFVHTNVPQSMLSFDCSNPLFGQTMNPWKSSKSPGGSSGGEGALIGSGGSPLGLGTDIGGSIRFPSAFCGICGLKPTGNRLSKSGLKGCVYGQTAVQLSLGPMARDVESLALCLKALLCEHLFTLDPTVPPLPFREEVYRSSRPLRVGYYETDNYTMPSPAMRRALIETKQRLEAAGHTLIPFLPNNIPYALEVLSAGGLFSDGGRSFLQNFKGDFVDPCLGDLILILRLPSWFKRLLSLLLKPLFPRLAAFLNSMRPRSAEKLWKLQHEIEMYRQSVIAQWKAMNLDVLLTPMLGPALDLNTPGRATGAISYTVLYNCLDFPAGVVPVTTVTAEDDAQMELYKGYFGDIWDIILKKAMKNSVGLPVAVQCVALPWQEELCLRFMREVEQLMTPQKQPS

Human FAAH = molecular target: T2, Human FAAH (Homo sapiens, UniProt O00519); assay: FAAH assay, kinetic analysis of irreversible inhibition (kinact/Ki); type: biochemical; settings: additional data table, unit inferred, read-out: hFAAH_Kinact/Ki
T2 construct: made in house
T2 sequence (O00519 32-579 limits assumed): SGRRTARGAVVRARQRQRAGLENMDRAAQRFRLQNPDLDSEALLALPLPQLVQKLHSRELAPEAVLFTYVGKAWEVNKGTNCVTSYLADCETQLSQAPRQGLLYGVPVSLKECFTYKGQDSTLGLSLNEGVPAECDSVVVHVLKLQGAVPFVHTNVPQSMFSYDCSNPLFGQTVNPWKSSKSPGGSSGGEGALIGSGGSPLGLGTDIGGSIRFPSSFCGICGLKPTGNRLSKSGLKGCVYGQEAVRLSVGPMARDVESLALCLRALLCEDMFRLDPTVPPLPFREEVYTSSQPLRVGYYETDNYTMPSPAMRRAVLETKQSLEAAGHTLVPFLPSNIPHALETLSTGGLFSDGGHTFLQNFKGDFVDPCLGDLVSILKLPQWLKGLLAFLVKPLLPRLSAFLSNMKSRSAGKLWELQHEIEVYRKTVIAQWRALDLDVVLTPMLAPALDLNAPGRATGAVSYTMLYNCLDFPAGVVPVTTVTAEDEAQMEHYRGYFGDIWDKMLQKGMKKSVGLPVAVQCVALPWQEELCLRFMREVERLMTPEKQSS
Procedure: A FAAH assay may be carried out in 384-well clear polystyrene plates in a total volume of 50 μl per well. All percents are by volume. To each well is placed the reaction mixture (40 μl) containing 1-4 nM FAAH, 50 mM NaPi, pH 7.4, 3 mM α-ketoglutarate, 0.15 mM NADH, 7.5 U/ml glutamate dehydrogenase, 2 mM ADP, 1 mM EDTA, and 0.1% Triton X-100 (The concentration shown for each component is the final concentration in the assay). To this mixture is added 5 μl of a compound of Examples 1 to 20 at various concentrations prepared in 50% DMSO (or 5 μl 50% DMSO for controls). This is immediately followed by the addition of 5 μl oleamide (500 μM) dissolved in […] and the reaction mixture is mixed for 1.5 min. The final concentrations of DMSO and EtOH in the assay are each 7.5%. The reactions is then incubated at 30° C. and the absorbance at 340 nm is collected over a period of 90 min with readings taken in 30-second intervals using SpectraMax Plus^384 Microplate Spectrophotometer (Molecular Devices, Sunnyvale, Calif.). Human FAAH used in the assay is prepared as described in the patent application WO 2006/067613. The purity of the enzyme used is preferably greater than 98% based on an analysis by SDS-polyacrylamide gel electrophoresis followed by Coomassie Blue staining.
Initial velocity data (V) is obtained from the slopes of the initial progressive curves. They are plotted as a function of substrate concentration and fit to the Michaelis-Menten equation (1) using Prism (GraphPad Software, Inc., San Diego, Calif.) software to obtain Km and Vmax values.
To obtain potencies of irreversible inhibitors, progressive curves consistent with first order inhibition kinetics (two-step irreversible inhibition mechanism) are fit to equation (2) by nonlinear least squares regressions to determine kobs values at each inhibitor concentration, where [P]t is the absorbance at time t, V0 is a constant related to the steady state rate of the uninhibited reaction, and kobs is the first order rate constant for enzyme inactivation. The inhibitor dissociation constant (Ki) and the first order rate
constant of enzyme inactivation at infinite inhibitor concentration (kinact) are then obtained by fitting the kobs vs. [I] curves to equation (3).

| Structure (SMILES) | FAAH_KINACTR:rFAAH:kobs/I (rFAAH) | kinact/KI (Human FAAH) [M⁻¹ s⁻¹] |
| --- | --- | --- |
| Cc1noc(NC(=O)N2CCC(=Cc3cccc(OCC4CCC(F)(F)CC4)c3)CC2)c1C [4-{3-[(4,4-difluorocyclohexyl)methoxy]benzylidene}-N-(3,4-dimethylisoxazol-5-yl)piperidine-1-carboxamide] | 5360 | 3970 |
| Cc1noc(NC(=O)N2CCC(=Cc3cccc(OCCCC(F)(F)F)c3)CC2)c1C [N-(3,4-dimethylisoxazol-5-yl)-4-[3-(4,4,4-trifluorobutoxy)benzylidene]piperidine-1-carboxamide] | 1540 | 12900 |
| CCCC(C)Oc1cccc(C=C2CCN(C(=O)Nc3onc(C)c3C)CC2)c1 (centres unmarked) [N-(3,4-dimethylisoxazol-5-yl)-4-[3-(1-methylbutoxy)benzylidene]piperidine-1-carboxamide] | 4610 | 4600 |
| Cc1oncc1NC(=O)N1CCC(=Cc2cccc(OCCOC(C)C)c2)CC1 [4-[3-(2-isopropoxyethoxy)benzylidene]-N-(5-methylisoxazol-4-yl)piperidine-1-carboxamide] | <12.6 | 2670 |
| O=C(Nc1cnoc1)N1CCC(=Cc2cccc(OC3CCC(F)(F)CC3)c2)CC1 [4-{3-[(4,4-difluorocyclohexyl)oxy]benzylidene}-N-isoxazol-4-ylpiperidine-1-carboxamide] | <10.0 | 1530 |
| CCCCOc1cccc(C=C2CCN(C(=O)Nc3cnoc3C)CC2)c1 [4-(3-butoxybenzylidene)-N-(5-methylisoxazol-4-yl)piperidine-1-carboxamide] | 12.9 | 2120 |
| Cc1oncc1NC(=O)N1CCC(=Cc2cccc(OC3CCC(F)(F)CC3)c2)CC1 [4-{3-[(4,4-difluorocyclohexyl)oxy]benzylidene}-N-(5-methylisoxazol-4-yl)piperidine-1-carboxamide] | 19.8 | 2900 |
| Cc1noc(NC(=O)N2CCC(=Cc3cccc(OC4CCC(C)(C)CC4)c3)CC2)c1C [4-{3-[(4,4-dimethylcyclohexyl)oxy]benzylidene}-N-(3,4-dimethylisoxazol-5-yl)piperidine-1-carboxamide] | 4910 | 959 |

Next, values leading:

| FAAH_KINACTR:rFAAH:kobs/I (rFAAH) | kinact/KI (Human FAAH) [M⁻¹ s⁻¹] | Structure (SMILES) |
| --- | --- | --- |
| <10.0 | 514 | Cc1ncsc1CCOc1cccc(C=C2CCN(C(=O)Nc3cnoc3)CC2)c1 [N-isoxazol-4-yl-4-{3-[2-(4-methyl-1,3-thiazol-5-yl)ethoxy]benzylidene}piperidine-1-carboxamide] |
| 7550 | 12800 | Cc1noc(NC(=O)N2CCC(=Cc3cccc(OCCc4ccc(F)cc4)c3)CC2)c1C [N-(3,4-dimethylisoxazol-5-yl)-4-{3-[2-(4-fluorophenyl)ethoxy]benzylidene}piperidine-1-carboxamide] |
| 160 | 2860 | Cc1oncc1NC(=O)N1CCC(=Cc2cccc(OC3CCC(C)(C)CC3)c2)CC1 [4-{3-[(4,4-dimethylcyclohexyl)oxy]benzylidene}-N-(5-methylisoxazol-4-yl)piperidine-1-carboxamide] |
| 4760 | 12700 | Cc1noc(NC(=O)N2CCC(=Cc3cccc(OCCOC(C)C)c3)CC2)c1C [N-(3,4-dimethylisoxazol-5-yl)-4-[3-(2-isopropoxyethoxy)benzylidene]piperidine-1-carboxamide] |
| 1920 | 4920 | Cc1ncsc1CCOc1cccc(C=C2CCN(C(=O)Nc3onc(C)c3C)CC2)c1 [N-(3,4-dimethylisoxazol-5-yl)-4-{3-[2-(4-methyl-1,3-thiazol-5-yl)ethoxy]benzylidene}piperidine-1-carboxamide] |
